One assay deals with Alternaria solani. Description: Alternaria solani (early blight of tomato/potato) mycelial radial growth on Potato Dextrose Agar. Conditions: 168 h, read-out: control.
The next assay has as its system Pyricularia oryzae. Description: microbe, parasite or virus in culture. The class given is cell-based. Conditions: 168 h, read-out: control.
A further assay has as its system Phakopsora pachyrhizi. Description: Phakopsora pachyrhizi test in soybean, preventive spray in greenhouse. Format: in vivo. Conditions: preventive spray on soybean plants, inoculated one day after treatment, compared to the untreated check, read-out: control (efficacy from disease severity rating).
The test system of a further assay is Corynespora cassiicola. Description: Corynespora cassiicola (leaf spot of tomato) mycelial radial growth on Potato Dextrose Agar. The class given is cell-based. Conditions: 300 ppm; radial growth after seven days, 25° C., 70% relative humidity; compared to the untreated check.

Protocol for Alternaria solani: Compounds were dissolved in 0.3% DMSO & then added to Potato Dextrose Agar medium just prior to dispensing it into Petri dishes. 5 ml medium with compound in the desired concentration was dispensed into 60 mm sterile petri-plates. After solidification each plate was seeded with 5 mm size mycelial disc taken form periphery of actively growing virulent culture plate. Plates were incubated in growth chambers at 25° C. temperature and 60% relative humidity for seven days and radial growth was measured.

As for `COc1ccc(S(C)(=O)=Nc2ccc(C3=NOC(C(F)(F)F)N3)cc2)cc1` (centres unmarked) [Compound 16, (4-methoxyphenyl)(methyl)((4-(5-(trifluoromethyl)-4,5-dihydro-1,2,4-oxadiazol-3-yl)phenyl)imino)-λ^6-sulfanone], the inhibition of growth at 300 ppm in the assay on Alternaria solani and in the assay on Pyricularia oryzae was greater than 70% in each case.
Consider `CS(=O)(=Nc1ccc(C2=NOC(C(F)(F)F)N2)cc1)c1ccccn1` (centres unmarked) [Compound 24, Methyl(pyridin-2-yl)((4-(5-(trifluoromethyl)-4,5-dihydro-1,2,4-oxadiazol-3-yl)phenyl)imino)-λ^6-sulfanone], for which the pest or weed control at 500 ppm with Phakopsora pachyrhizi is greater than 90%. In addition, the inhibition of growth at 300 ppm in the assay with Alternaria solani and in the assay on Pyricularia oryzae was greater than 70% each time.
Regarding `Cc1ccc(S(C)(=O)=NCc2ccc(C3=NOC(C(F)(F)F)N3)cc2)cc1` (centres unmarked) [Compound 30, methyl(p-tolyl)((4-(5-(trifluoromethyl)-4,5-dihydro-1,2,4-oxadiazol-3-yl)benzyl)imino)-λ^6-sulfanone], in the assay with Phakopsora pachyrhizi, the pest or weed control at 500 ppm is greater than 90%. Also, the inhibition of growth at 300 ppm with Alternaria solani and in the assay with Pyricularia oryzae was greater than 70% each time.
For `CS(=O)(=NC(=O)c1ccc(-c2cc(C(F)(F)F)on2)cc1)c1ccc(C(F)(F)F)cc1` (centres unmarked) [Compound 59, N-(methyl(oxo)(4-(trifluoromethyl)phenyl)-λ^6-sulfaneylidene)-4-(5-(trifluoromethyl)isoxazol-3-yl)benzamide], the control result with Corynespora cassiicola is reported as “more than 70%”.
Turning to `CN(CCOc1ccccc1)C(=O)c1ccc(-c2coc(C(F)(F)F)n2)cc1` [Compound 67, N-methyl-N-(2-phenoxyethyl)-4-(2-(trifluoromethyl)oxazol-4-yl)benzamide], the pest or weed control at 500 ppm with Phakopsora pachyrhizi was greater than 90%. Moreover, the inhibition of growth at 300 ppm in the assay with Alternaria solani and in the assay on Pyricularia oryzae was greater than 70% throughout.
Turning to `CN(C(=O)c1ccc(-c2coc(C(F)(F)F)n2)cc1)c1ccccc1` [Compound 82, N-methyl-N-phenyl-4-(2-(trifluoromethyl)oxazol-4-yl)benzamide], the pest or weed control at 500 ppm in the assay on Phakopsora pachyrhizi was greater than 90%. Further, the inhibition of growth at 300 ppm in the assay with Alternaria solani and in the assay with Pyricularia oryzae was greater than 70% each time.
In the case of `CS(=O)(=NC(=O)c1ccc(-c2coc(C(F)(F)F)n2)cc1)c1ccccc1F` (centres unmarked) [Compound 84, N-((2-fluorophenyl)(methyl)(oxo)-λ^6-sulfaneylidene)-4-(2-(trifluoromethyl)oxazol-4-yl)benzamide], the inhibition of growth at 300 ppm in the assay with Alternaria solani and in the assay with Pyricularia oryzae was greater than 70% each time.
